Measured values as given in the NIST ThermoML archive (doi:10.1021/je3002514).
± gives the expanded uncertainty stated by the source.

Conditions: Crystal; visual observation

Row | Structure (SMILES) | Normal melting temperature [°C]
1 | CCCC[N+](C)(CCCC)CCCC.COS(=O)(=O)[O-] [N,N-dibutyl-N-methyl-1-butanaminium methyl sulfate] | 62.0 ± 2
2 | CCCC[P+](C)(CCCC)CCCC.COS(=O)(=O)[O-] [tributylmethylphosphonium methyl sulfate] | 38.0 ± 2
